Reference: paper PMC4977651, “Molecular features of biguanides required for targeting of mitochondrial respiratory complex I and activation of AMP-kinase” (BMC Biology, 2016)
Where “and” joins values, the source holds several entries; their conditions need not be identical. Identical values can stand only once.

Columns and labels:
MDBK cells = experiment: Rotenone-sensitive oxygen consumption rate in intact MDBK cells; format: cell-based, Bos taurus; design: key to rotenone sensitive OCR after 40 mins of biguanide exposure / rotenone sensitive OCR after 40 mins of biguanide exposure, average: % of OCR recorded immediately before biguanide addition; conditions: biguanide at IC50/10; for rotenone sensitive OCR after 6 hours of biguanide exposure, % control, average / rotenone sensitive OCR after 6 hours of biguanide exposure, average: MDBK cells; for rotenone sensitive OCR after 6 hours of biguanide exposure, average: OCR normalized to OCR immediately prior to biguanide addition; for rotenone sensitive OCR after 40 mins of biguanide exposure, % control, average / rotenone sensitive OCR after 40 mins of biguanide exposure, average / rotenone sensitive OCR after 40 mins of biguanide exposure / rotenone sensitive OCR after 40 mins of biguanide exposure, % control: MDBK intact cells; for rotenone sensitive OCR after 40 mins of biguanide exposure, % control, average / rotenone sensitive OCR after 40 mins of biguanide exposure, average: average of replicates; for rotenone sensitive OCR after 40 mins of biguanide exposure / rotenone sensitive OCR after 40 mins of biguanide exposure, % control: individual replicates
Description: 143B (CRL-8303 from ATCC), HepG2 (85011430 from The Health Protection Agency), and MDBK (CCL-22 from ATCC) cells were grown on Dulbecco’s modified Eagle’s medium (DMEM) supplemented with 10 % fetal bovine serum (FBS, Thermo Fisher Scientific) at 37 °C in 5 % CO2. All cells were confirmed as negative for mycoplasma.
Oxygen consumption rates (OCRs) were measured using a Seahorse XF96 extracellular flux analyzer at 37 °C. For intact cell measurements, 1.4 × 10^4 143B, HepG2, or MDBK cells were plated (per well) in DMEM containing 10 % FBS into Seahorse Bioscience Inc. XF96 plates and incubated for ~12 h at 37 °C in 5 % CO2. Then, the medium was exchanged for assay buffer containing DMEM, 4.5 g L^−1 glucose, 1 mM pyruvate, 32 mM NaCl, 2 mM GlutaMAX, 15 mg L^−1 phenol red, and 20 mM HEPES (pH 7.4 at 37 °C) and the cells placed in a CO2-free incubator at 37 °C for 30 min. Basal oxygen consumption rates were established before the addition of biguanides at one-tenth of their IC50 (IC50/10), and followed for ~ 6 h before the addition of rotenone (2 μM).
(§1) Rotenone-sensitive OCRs were calculated by subtracting the rotenone-insensitive rates (determined at the end of the experiment). OCRs were normalized by dividing by the OCR recorded immediately prior to the addition of biguanide. For rate of uptake calculations, the OCRs at time points after biguanide addition were divided by the OCRs at the same time points in control experiments. Data from wells with failed port injections were excluded from the analyses. The respiratory control ratio (RCR) values (state III versus state IV respiration) were ~11 and ~6 for permeabilized MDBK and 143B cells, respectively.

[1] = system: acetyl-coA carboxylase (phospho-Ser79); experiment: AMPK activation, western blot of phospho-acetyl-coA carboxylase in MDBK cells; format: cell-based, Bos taurus; conditions: for ACC, average normalised to control: Averages of experiments 1-3, 18 hours; for p-ACC: band intensity
Description: MDBK cells were seeded at 1 × 10^6 cells per 6 cm dish in DMEM containing 10 % FBS. […] After 18 h cells were harvested by a rapid lysis procedure: cells were rinsed with PBS, then lysed using ice-cold buffer containing 50 mM HEPES, 1 mM EDTA, 10 % glycerol, 50 mM NaF, 5 mM sodium pyrophosphate, 1 % Triton-X100, 1 mM dithiothreitol (DTT), and a protease inhibitor cocktail (Roche). The cell lysate was centrifuged at 14,000 × g for 20 min at 4 °C and the protein concentration of the supernatant determined by bicinchoninic acid assay. The lysate was analyzed using Novex 3–12 % bis-Tris gels run in 3-(N-morpholino)propanesulfonic acid (MOPS) buffer (20 μg of protein per lane) followed by transfer to low fluorescence polyvinylidene fluoride membranes by wet transfer. Primary rabbit antibodies for AMPK-β (57C12), AMPK-α (phospho-Thr172) (40H9), and acetyl-coA carboxylase (phospho-Ser79) (Cell Signaling Technology) were incubated overnight with the membrane (1:1000 dilution) in Odyssey blocking buffer at 4 °C. A fluorescent secondary antibody was used (IRDYE800CW from LI-COR Biosciences, 1:20,000 dilution) with a LI-COR Odyssey imaging system.

mouse liver mitochondria = experiment: ADP-stimulated rotenone-sensitive OCR in isolated mouse liver mitochondria; format: biochemical; design: rotenone sensitive OCR after ADP stimulation, individual replicates / rotenone sensitive OCR after ADP stimulation, average: unit not given here; conditions: for rotenone sensitive OCR after ADP stimulation, % of control, average / rotenone sensitive OCR after ADP stimulation, average: average of replicates; for rotenone sensitive OCR after ADP stimulation, % of control, individual replicates / rotenone sensitive OCR after ADP stimulation, individual replicates: replicate 1-5
Description: Complex I and mitochondrial membranes were prepared from Bos taurus (bovine) heart. Intact mitochondria were isolated from rat liver and mouse heart and liver. Membranes were prepared from mouse heart mitochondria by 5 s bursts of sonication at 4 °C and collected by centrifugation (75,000 × g, 1 h).
Isolated mitochondria were monitored using a Seahorse XF96 extracellular flux analyzer at 32 °C. Mouse heart mitochondria, and mouse and rat liver mitochondria were plated into XF96 plates at 4 and 16–20 μg per well, respectively, in 220 mM mannitol, 70 mM sucrose, 10 mM KH2PO4, 5 mM MgCl2, 1 mM EGTA, 0.2 % fatty acid-free BSA, and 2 mM HEPES (pH 7.4 at 37 °C) with 10 mM glutamate and 10 mM malate and adhered by centrifugation (2000 × g, 20 min, 4 °C). The medium was supplemented with a further 5 mM glutamate and 5 mM malate and the mitochondria incubated for 15 min. Then two baseline readings were taken before the biguanides were added at IC50/5. Biguanides were allowed to accumulate for 15–20 min before respiration was […] by the addition of 4 mM ADP. Rotenone (2 μM) was added at the end of the experiment. Data from wells with failed port injections were excluded from the analyses. The RCR values (state III versus state IV respiration) were 3.4, 4.8, and 4.6 for mouse heart, rat liver, and mouse liver, respectively.

permeabilized MDBK cells = experiment: ADP-stimulated rotenone-sensitive OCR in permeabilized MDBK cells; format: cell-based, Bos taurus; design: rotenone sensitive OCR after ADP stimulation, average / rotenone sensitive OCR after ADP stimulation: unit not given here; conditions: for rotenone sensitive OCR after ADP stimulation, % of control, average / rotenone sensitive OCR after ADP stimulation, average / rotenone sensitive OCR after ADP stimulation / rotenone sensitive OCR after ADP stimulation, % of control: MDBK permeabilised cells; for rotenone sensitive OCR after ADP stimulation, % of control, average / rotenone sensitive OCR after ADP stimulation, average: average of replicates; for rotenone sensitive OCR after ADP stimulation / rotenone sensitive OCR after ADP stimulation, % of control: individual replicates
Description: For permeabilized cell experiments, cells were seeded into XF96 plates at 0.9–1.1 × 10^4 per well and incubated for 48 h at 37 °C in 5 % CO2. Then, the growth medium was exchanged for assay buffer containing 3 nM plasma membrane permeabilizer ‘PMP’ (Seahorse Biosciences Inc.), 10 mM glutamate, 10 mM malate, 220 mM mannitol, 70 mM sucrose, 10 mM KH2PO4, 5 mM MgCl2, 1 mM EGTA, 0.2 % fatty acid-free bovine serum albumin (BSA), and 2 mM HEPES (pH 7.4 at 37 °C). […] The biguanides were allowed to accumulate for 30 min, then respiration was […] by the addition of 4 mM ADP. Rotenone was added (2 μM) at the end of the experiment.
as §1

Row | Structure (SMILES) | rotenone sensitive OCR after 6 hours of biguanide exposure, % control, average (MDBK cells) [% control] | rotenone sensitive OCR after 6 hours of biguanide exposure, average (MDBK cells) | rotenone sensitive OCR after 40 mins of biguanide exposure, % control, average (MDBK cells) [% control] | rotenone sensitive OCR after 40 mins of biguanide exposure, average (MDBK cells) | rotenone sensitive OCR after 40 mins of biguanide exposure (MDBK cells) | rotenone sensitive OCR after 40 mins of biguanide exposure, % control (MDBK cells) | ACC, average normalised to control [1] | p-ACC / AMPK beta ([1]; Experiment 1, 18 hours) | p-ACC / AMPK beta normalised to control ([1]; Experiment 1, 18 hours) | p-ACC ([1]; Experiment 1, 18 hours) | p-ACC / AMPK beta ([1]; Experiment 2, 18 hours) | p-ACC / AMPK beta normalised to control ([1]; Experiment 2, 18 hours) | p-ACC ([1]; Experiment 2, 18 hours) | p-ACC / AMPK beta ([1]; Experiment 3, 18 hours) | p-ACC / AMPK beta normalised to control ([1]; Experiment 3, 18 hours) | p-ACC ([1]; Experiment 3, 18 hours) | rotenone sensitive OCR after ADP stimulation, % of control, average (mouse liver mitochondria) | rotenone sensitive OCR after ADP stimulation, average (mouse liver mitochondria) | rotenone sensitive OCR after ADP stimulation, % of control, individual replicates (mouse liver mitochondria) | rotenone sensitive OCR after ADP stimulation, individual replicates (mouse liver mitochondria) | further results
1 | CC(C)N=C(N)N=C(N)N [compound 4, 1-(diaminomethylidene)-2-(propan-2-yl)guanidine] | 18.29 | 18.34 | 93.72 | 95.36 | 95.78 and 95.98 and 96.95 and 94.61 and 94.86 and 94.00 | 94.13 % control and 94.32 % control and 95.28 % control and 92.98 % control and 93.22 % control and 92.38 % control | 13.65 | 2.64 | 13.60 | 1170 | 2.65 | 16.42 | 693 | 3.25 | 10.92 | 641 | 19.19 % of control | 6.66 | 21.16 % of control and 18.53 % of control and 17.88 % of control | 7.34 and 6.43 and 6.20 | inhibition of OCR (permeabilized MDBK cells; MDBK cells, 30 min, data used for Fig. 4c matrix concentration estimate): exceeded 90%; rotenone sensitive OCR after ADP stimulation, % of control, average (permeabilized MDBK cells): 3.16 % of control; rotenone sensitive OCR after ADP stimulation, average (permeabilized MDBK cells): 8.89; rotenone sensitive OCR after ADP stimulation, % of control, average (permeabilized MDBK cells; biguanide at IC50/5): 3.16 % of control; rotenone sensitive OCR after ADP stimulation, average (permeabilized MDBK cells; biguanide at IC50/5): 8.89; rotenone sensitive OCR after ADP stimulation (permeabilized MDBK cells; biguanide at IC50/5): 14.20 and 41.21 and 15.97 and 1.99 and -24.18 and 20.17 and 9.00 and -7.21; rotenone sensitive OCR after ADP stimulation, % of control (permeabilized MDBK cells; biguanide at IC50/5): 5.04 % of control and 14.62 % of control and 5.67 % of control and 0.71 % of control and -8.58 % of control and 7.16 % of control and 3.19 % of control and -2.56 % of control
2 | CC(C)N=C(N)N=C(N)NC(C)C [compound 5, N-(propan-2-yl)-1-3-(propan-2-yl)carbamimidamidomethanimidamide] | 95.30 | 95.59 | 97.92 | 99.64 | 98.03 and 101.32 and 101.34 and 98.05 and 98.68 and 101.35 and 98.70 | 96.34 % control and 99.57 % control and 99.60 % control and 96.36 % control and 96.98 % control and 99.61 % control and 97.00 % control | 1.36 | 0.27 | 1.41 | 131 | 0.23 | 1.44 | 70.3 | 0.36 | 1.22 | 64.6 | 82.72 % of control | 28.70 | 96.11 % of control and 71.97 % of control and 77.63 % of control and 85.15 % of control | 33.35 and 24.97 and 26.94 and 29.54 | rotenone sensitive OCR after ADP stimulation, % of control, average (permeabilized MDBK cells): 94.54 % of control; rotenone sensitive OCR after ADP stimulation, average (permeabilized MDBK cells): 266.44; rotenone sensitive OCR after ADP stimulation, % of control, average (permeabilized MDBK cells; biguanide at IC50/5): 94.54 % of control; rotenone sensitive OCR after ADP stimulation, average (permeabilized MDBK cells; biguanide at IC50/5): 266.44; rotenone sensitive OCR after ADP stimulation (permeabilized MDBK cells; biguanide at IC50/5): 341.66 and 308.83 and 224.55 and 216.86 and 280.18 and 213.17 and 210.97 and 335.32; rotenone sensitive OCR after ADP stimulation, % of control (permeabilized MDBK cells; biguanide at IC50/5): 121.23 % of control and 109.59 % of control and 79.68 % of control and 76.95 % of control and 99.42 % of control and 75.64 % of control and 74.86 % of control and 118.98 % of control
3 | [H]/N=C(/N)N/C(=N/[H])NCCc1ccccc1 [phenformin, reference compound] | 42.78 | 42.91 | 95.24 | 96.91 | 97.35 and 95.76 and 94.48 and 101.29 and 95.15 and 97.44 | 95.67 % control and 94.11 % control and 92.85 % control and 99.55 % control and 93.51 % control and 95.76 % control | 7.37 | 1.27 | 6.56 | 586 | 1.60 | 9.93 | 598 | 1.68 | 5.62 | 404 | 29.95 % of control | 10.39 | 29.69 % of control and 34.49 % of control and 19.77 % of control and 35.85 % of control | 10.30 and 11.97 and 6.86 and 12.44 | rotenone sensitive OCR after ADP stimulation, % of control, average (permeabilized MDBK cells): 14.11 % of control; rotenone sensitive OCR after ADP stimulation, average (permeabilized MDBK cells): 39.76; rotenone sensitive OCR after ADP stimulation, % of control, average (permeabilized MDBK cells; biguanide at IC50/5): 14.11 % of control; rotenone sensitive OCR after ADP stimulation, average (permeabilized MDBK cells; biguanide at IC50/5): 39.76; rotenone sensitive OCR after ADP stimulation (permeabilized MDBK cells; biguanide at IC50/5): 45.64 and 68.90 and 0.07 and 37.54 and 39.83 and 25.16 and 62.96 and 38.03; rotenone sensitive OCR after ADP stimulation, % of control (permeabilized MDBK cells; biguanide at IC50/5): 16.19 % of control and 24.45 % of control and 0.025 % of control and 13.32 % of control and 14.13 % of control and 8.93 % of control and 22.34 % of control and 13.49 % of control
